These results are taken from patent US20100105655A1, “NOVEL COMPOUNDS 515” (ASTRAZENECA AB, priority 2008, published 2010).

For the assay, the target named is T1, IGFR kinase (Homo sapiens, UniProt P08069).
T1 construct: purchased Millipore
T1 sequence (P08069 31-1367): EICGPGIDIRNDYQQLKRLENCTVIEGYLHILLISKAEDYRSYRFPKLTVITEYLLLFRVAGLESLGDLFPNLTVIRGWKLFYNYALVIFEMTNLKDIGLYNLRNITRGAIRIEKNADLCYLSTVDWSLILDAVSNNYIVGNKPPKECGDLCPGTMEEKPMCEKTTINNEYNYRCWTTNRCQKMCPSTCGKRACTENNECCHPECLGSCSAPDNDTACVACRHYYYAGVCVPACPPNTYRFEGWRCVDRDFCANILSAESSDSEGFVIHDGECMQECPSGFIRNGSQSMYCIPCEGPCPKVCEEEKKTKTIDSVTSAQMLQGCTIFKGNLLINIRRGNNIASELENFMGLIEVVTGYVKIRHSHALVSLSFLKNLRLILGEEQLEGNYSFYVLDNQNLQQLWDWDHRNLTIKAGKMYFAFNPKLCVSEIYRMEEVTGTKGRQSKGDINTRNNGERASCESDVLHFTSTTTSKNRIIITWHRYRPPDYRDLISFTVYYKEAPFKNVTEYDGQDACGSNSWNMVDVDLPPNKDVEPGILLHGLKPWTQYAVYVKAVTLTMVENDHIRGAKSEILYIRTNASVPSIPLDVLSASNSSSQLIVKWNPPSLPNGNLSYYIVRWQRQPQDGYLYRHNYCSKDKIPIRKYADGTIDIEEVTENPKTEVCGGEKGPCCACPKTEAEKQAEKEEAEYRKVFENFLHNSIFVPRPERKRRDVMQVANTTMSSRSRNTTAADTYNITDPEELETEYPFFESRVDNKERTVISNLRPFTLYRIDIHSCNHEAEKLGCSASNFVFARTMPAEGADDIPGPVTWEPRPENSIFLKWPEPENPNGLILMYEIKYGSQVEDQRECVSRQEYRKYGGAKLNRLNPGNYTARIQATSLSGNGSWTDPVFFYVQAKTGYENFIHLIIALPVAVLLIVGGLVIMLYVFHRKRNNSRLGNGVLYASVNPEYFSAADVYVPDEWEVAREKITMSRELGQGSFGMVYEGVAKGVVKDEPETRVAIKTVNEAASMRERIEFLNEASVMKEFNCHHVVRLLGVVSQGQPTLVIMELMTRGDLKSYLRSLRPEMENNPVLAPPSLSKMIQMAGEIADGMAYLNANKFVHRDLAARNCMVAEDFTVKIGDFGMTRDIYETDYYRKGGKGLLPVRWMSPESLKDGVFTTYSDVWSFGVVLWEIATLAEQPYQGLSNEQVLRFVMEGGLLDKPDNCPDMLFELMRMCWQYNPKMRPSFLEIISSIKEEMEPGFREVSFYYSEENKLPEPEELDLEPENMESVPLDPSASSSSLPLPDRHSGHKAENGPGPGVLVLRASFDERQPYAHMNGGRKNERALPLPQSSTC
The assay is described as follows: Enzyme assay (c), IGFR kinase, Caliper LabChip. The conditions noted are these: 30 nM IGFR kinase, 6 uM ATP, 3 uM peptide mix; read-out: IGFR IC50. The format is biochemical. As for the experimental part: For Echo dosing the solvent was 100% DMSO. A master plate was prepared with 40 ul of 10 mM stock solution of the test compound in DMSO in quadrant 1 of a Labcyte 384 well plate. A 1 in 100 dilution was made from quadrant 1 into quadrant 2 by removing 0.4 ul and adding it to 39.6 ul of DMSO. Subsequent 1 in 100 dilutions were made into quadrant 3 from quadrant 2 and quadrant 4 from quadrant 3.
Multiple 2.5 nl droplets were dispensed from each quadrant of the master plate to generate the dose range that was required in the test. The dose range most commonly used was as follows: 100 uM, 30 uM, 10 uM, 3 uM, 1 uM, 0.3 uM, 0.1 uM, 0.03 uM, 0.01 uM, 0.003 uM, 0.001 uM, 0.0001 uM. Each well was backfilled with dimethyl sulfoxide (DMSO) to a total volume of 120 nl, such that when the enzyme and substrate mix was added the final DMSO concentration was 1%.
DMSO was added to max control wells as 120 nl, minimum control wells were treated with 120 nl of compound at a concentration that inhibited the enzyme activity 100%.
Integration of the substrate and product peaks was carried out using Caliper LabChip software and IC50 curves were calculated using Origin™ software.
As for `COc1cc(O[C@@H]2CCN(C(=O)C(C)O)C2)ccc1Nc1ncc(Cl)c(-c2cnc3ccccn23)n1` (mixture of isomers) [Example 12, 1-[(3R)-3-[4-[(5-chloro-4-imidazo[1,2-a]pyridin-3-yl-pyrimidin-2-yl)amino]-3-methoxy-phenoxy]pyrrolidin-1-yl]-2-hydroxy-propan-1-one], the IC50 (in general, the concentration that inhibits the measured activity by half) turned out to be 22 nM.

As for `COc1cc(O[C@H]2CCN(C(=O)C(C)O)C2)ccc1Nc1ncc(Cl)c(-c2cnc3ccccn23)n1` (mixture of isomers) [Example 15, 1-[(3S)-3-[4-[(5-chloro-4-imidazo[1,2-a]pyridin-3-yl-pyrimidin-2-yl)amino]-3-methoxy-phenoxy]pyrrolidin-1-yl]-2-hydroxy-propan-1-one], the IC50 amounted to 12 nM.

As to `COc1cc(N2CCCC2C(=O)N2CCOCC2)ccc1Nc1ncc(Cl)c(-c2cnc3ccccn23)n1` (stereo not shown) [Example 3.2, [1-[4-[(5-chloro-4-imidazo[1,2-a]pyridin-3-yl-pyrimidin-2-yl)amino]-3-methoxy-phenyl]pyrrolidin-2-yl]-morpholino-methanone], the IC50 was 54 nM.

Take `COc1cc(N2CCN(CC(=O)N3CCOCC3)CC2)ccc1Nc1ncc(Cl)c(-c2cnc3ccccn23)n1` [Example 3.3, 2-[4-[4-[(5-chloro-4-imidazo[1,2-a]pyridin-3-yl-pyrimidin-2-yl)amino]-3-methoxy-phenyl]piperazin-1-yl]-1-morpholino-ethanone]: the IC50 came to 11 nM.

Take `COc1ccc(N2CC[C@H](O)C2)cc1Nc1ncc(Cl)c(-c2cnc3ccccn23)n1` [Example 3.5, (3S)-1-[3-[(5-chloro-4-imidazo[1,2-a]pyridin-3-yl-pyrimidin-2-yl)amino]-4-methoxy-phenyl]pyrrolidin-3-ol]: the half-maximal inhibitory concentration (IC50) was 41 nM.

With `COc1cc(N2CC(C)NC(C)C2)ccc1Nc1ncc(Cl)c(-c2cnc3ccccn23)n1` (stereo not shown) [Example 3.6, 5-chloro-N-[4-(3,5-dimethylpiperazin-1-yl)-2-methoxy-phenyl]-4-imidazo[1,2-a]pyridin-3-yl-pyrimidin-2-amine], the IC50 is 20 nM.

`COc1cc(N2CCN(S(=O)(=O)N(C)C)CC2)ccc1Nc1ncc(Cl)c(-c2cnc3ccccn23)n1` [Example 3.7, 4-[4-[(5-chloro-4-imidazo[1,2-a]pyridin-3-yl-pyrimidin-2-yl)amino]-3-methoxy-phenyl]-N,N-dimethyl-piperazine-1-sulfonamide]: the IC50 was determined as 11 nM.

With `COc1ccc(N2CCCC2)cc1Nc1ncc(Cl)c(-c2cnc3ccccn23)n1` [Example 3.8, 5-chloro-4-imidazo[1,2-a]pyridin-3-yl-N-(2-methoxy-5-pyrrolidin-1-yl-phenyl)pyrimidin-2-amine], the IC50 was determined as 309 nM.

`COc1cc(N2CC[C@@H](N(C)C)C2)ccc1Nc1ncc(Cl)c(-c2cnc3ccccn23)n1` [Example 3.11, 5-chloro-N-[4-[(3R)-3-dimethylaminopyrrolidin-1-yl]-2-methoxy-phenyl]-4-imidazo[1,2-a]pyridin-3-yl-pyrimidin-2-amine]: the IC50 was determined as 69 nM.

As for `COCCN1CCN(CCOc2ccc(Nc3ncc(Cl)c(-c4cnc5ccccn45)n3)c(OC)c2)CC1` [Example 3.12, 5-chloro-4-imidazo[1,2-a]pyridin-3-yl-N-[2-methoxy-4-[2-[4-(2-methoxyethyl)piperazin-1-yl]ethoxy]phenyl]pyrimidin-2-amine], the IC50 amounted to 44 nM.

With `COc1ccc(N2CC[C@@H](N(C)C)C2)cc1Nc1ncc(Cl)c(-c2cnc3ccccn23)n1` [Example 3.13, 5-chloro-N-[5-[(3R)-3-dimethylaminopyrrolidin-1-yl]-2-methoxy-phenyl]-4-imidazo[1,2-a]pyridin-3-yl-pyrimidin-2-amine], the IC50 was 60 nM.

Take `Cc1ccc(N2CC[C@H](N(C)C)C2)cc1Nc1ncc(Cl)c(-c2cnc3ccccn23)n1` [Example 3.14, 5-chloro-N-[5-[(3S)-3-dimethylaminopyrrolidin-1-yl]-2-methyl-phenyl]-4-imidazo[1,2-a]pyridin-3-yl-pyrimidin-2-amine]: the IC50 amounted to 30 nM.

On to `COc1cc(N2CCS(=O)(=O)CC2)ccc1Nc1ncc(Cl)c(-c2cnc3ccccn23)n1` [Example 3.15, 5-chloro-N-[4-(1,1-dioxo-1,4-thiazinan-4-yl)-2-methoxy-phenyl]-4-imidazo[1,2-a]pyridin-3-yl-pyrimidin-2-amine], for which the 50% inhibitory concentration (IC50) is 60 nM.

On to `COc1cc(N2CC[C@H](N(C)C)C2)ccc1Nc1ncc(Cl)c(-c2cnc3ccccn23)n1` [Example 3.16, 5-chloro-N-[4-[(3S)-3-dimethylaminopyrrolidin-1-yl]-2-methoxy-phenyl]-4-imidazo[1,2-a]pyridin-3-yl-pyrimidin-2-amine], for which the IC50 came to 43 nM.

For the compound `COc1ccc(N2CC[C@H](N(C)C)C2)cc1Nc1ncc(Cl)c(-c2cnc3ccccn23)n1` [Example 3.17, 5-chloro-N-[5-[(3S)-3-dimethylaminopyrrolidin-1-yl]-2-methoxy-phenyl]-4-imidazo[1,2-a]pyridin-3-yl-pyrimidin-2-amine], the IC50 was determined as 125 nM.

As to `COc1ccc(N2CC[C@@H](O)C2)cc1Nc1ncc(Cl)c(-c2cnc3ccccn23)n1` [Example 3.18, (3R)-1-[3-[(5-chloro-4-imidazo[1,2-a]pyridin-3-yl-pyrimidin-2-yl)amino]-4-methoxy-phenyl]pyrrolidin-3-ol], the IC50 was determined as 41 nM.

Turning to `COc1ccc(N2CCC(OC)CC2)cc1Nc1ncc(Cl)c(-c2cnc3ccccn23)n1` [Example 3.20, 5-chloro-4-imidazo[1,2-a]pyridin-3-yl-N-[2-methoxy-5-(4-methoxy-1-piperidyl)phenyl]pyrimidin-2-amine], the IC50 worked out at 43 nM.

Consider `COc1cc(N2CC[C@@H](NC(C)=O)C2)ccc1Nc1ncc(Cl)c(-c2cnc3ccccn23)n1` [Example 3.23, N-((3R)-1-(4-(5-chloro-4-(imidazo[1,2-a]pyridin-3-yl)pyrimidin-2-ylamino)-3-methoxyphenyl)pyrrolidin-3-yl)acetamide], for which the IC50 was found to be 18 nM.

In the case of `COc1cc(C2CNC(=O)C2)ccc1Nc1ncc(Cl)c(-c2cnc3ccccn23)n1` (stereo not shown) [Example 3.24, 4-[4-[(5-chloro-4-imidazo[1,2-a]pyridin-3-yl-pyrimidin-2-yl)amino]-3-methoxy-phenyl]pyrrolidin-2-one], the IC50 came to 8 nM.

Regarding `COc1cc(C2CCCCN2C(C)=O)ccc1Nc1ncc(Cl)c(-c2cnc3ccccn23)n1` (stereo not shown) [Example 3.25, 1-[2-[4-[(5-chloro-4-imidazo[1,2-a]pyridin-3-yl-pyrimidin-2-yl)amino]-3-methoxy-phenyl]-1-piperidyl]ethanone], the IC50 is 10 nM.

As to `COc1cc(N2CCN(C(C)=O)CC2)cc(F)c1Nc1ncc(Cl)c(-c2cnc3ccccn23)n1` [Example 3.26, 1-[4-[4-[(5-chloro-4-imidazo[1,2-a]pyridin-3-yl-pyrimidin-2-yl)amino]-3-fluoro-5-methoxy-phenyl]piperazin-1-yl]ethanone], the IC50 came out at 19 nM.

Consider `CNC(=O)C1CC(c2ccc(Nc3ncc(Cl)c(-c4cnc5ccccn45)n3)c(OC)c2)CN1` (stereo not shown) [Example 3.27, 4-[4-[(5-chloro-4-imidazo[1,2-a]pyridin-3-yl-pyrimidin-2-yl)amino]-3-methoxy-phenyl]-N-methyl-pyrrolidine-2-carboxamide], for which the IC50 was determined as 6 nM.

On to `COc1cc(C2CCCN(C(C)=O)C2)ccc1Nc1ncc(Cl)c(-c2cnc3ccccn23)n1` (stereo not shown) [Example 3.29, 1-[3-[4-[(5-chloro-4-imidazo[1,2-a]pyridin-3-yl-pyrimidin-2-yl)amino]-3-methoxy-phenyl]-1-piperidyl]ethanone], for which the IC50 was found to be 6 nM.

On to `CC(=O)N1CCN(c2ccc(Nc3ncc(Cl)c(-c4cnc5ccccn45)n3)c(C)c2)CC1` [Example 3.30, 1-[4-[4-[(5-chloro-4-imidazo[1,2-a]pyridin-3-yl-pyrimidin-2-yl)amino]-3-methyl-phenyl]piperazin-1-yl]ethanone], for which the IC50 was found to be 12 nM.

As to `COc1cc(N2CC(C)N(C(C)=O)C(C)C2)ccc1Nc1ncc(Cl)c(-c2cnc3ccccn23)n1` (stereo not shown) [Example 3.31, 1-[4-[4-[(5-chloro-4-imidazo[1,2-a]pyridin-3-yl-pyrimidin-2-yl)amino]-3-methoxy-phenyl]-2,6-dimethyl-piperazin-1-yl]ethanone], the IC50 came out at 11 nM.

For `CC(=O)N1CCN(c2ccc(Nc3ncc(Cl)c(-c4cnc5ccccn45)n3)c(C)c2C)CC1` [Example 3.32, 1-[4-[4-[(5-chloro-4-imidazo[1,2-a]pyridin-3-yl-pyrimidin-2-yl)amino]-2,3-dimethyl-phenyl]piperazin-1-yl]ethanone], the IC50 came to 12 nM.

Regarding `CC(=O)N1CCN(c2cc(C)c(Nc3ncc(Cl)c(-c4cnc5ccccn45)n3)cc2F)CC1` [Example 3.33, 1-[4-[4-[(5-chloro-4-imidazo[1,2-a]pyridin-3-yl-pyrimidin-2-yl)amino]-2-fluoro-5-methyl-phenyl]piperazin-1-yl]ethanone], the IC50 came to 16 nM.

As to `CC(=O)N1CCN(c2ccc(Nc3ncc(Cl)c(-c4cnc5ccccn45)n3)c(OC(C)C)c2)CC1` [Example 3.34, 1-[4-[4-[(5-chloro-4-imidazo[1,2-a]pyridin-3-yl-pyrimidin-2-yl)amino]-3-isopropoxy-phenyl]piperazin-1-yl]ethanone], the IC50 came out at 22 nM.
